Source: a melting point compilation (Tetko et al.; mined from patent text by program, amines drawn as free bases though some values may be those of a salt)

With `CS(=O)(=O)On1c(C(F)(F)F)nc2ncc(Cl)cc21` the melting point was 137 °C.
For `Cc1ccc(C(=O)O)c(S(C)(=O)=O)c1`, the melting point was 174 °C.
In the case of `CCOC(=O)COc1ccc(C(=O)Nc2cccc(Cl)c2Sc2ccccc2-c2nnn[nH]2)cc1`, the melting point is reported as 180 to 182 °C.
`O=C(O)c1ccccc1Oc1cccc(F)c1` gave a melting point of 122 °C.
`CCCCCNC(=O)Nc1ccccc1C(=O)NC1CCN(C(c2ccccc2)c2ccccc2)CC1` gave a melting point of 199 to 201 °C.
In the case of `COC(=O)C(=O)c1ccccc1COc1ccc(-c2ccccc2)cc1`, the melting point is reported as 106 to 107 °C.
`O=C(c1c(-c2cc(Cl)cc(Cl)c2)[nH]c2c(Cl)cc(Cl)cc12)C(F)(F)F` showed a melting point of 214 to 216 °C.
`C[C@@H]1C(=O)C[C@H]2C[C@@H]1OO[C@@]2(C)/C=C/c1cc(C(F)(F)F)nc2c(Cl)cc(Cl)cc12` showed a melting point of 196 °C.
Compound `CC1CN(C(=O)Cl)NC1=O` (centres undefined) has a melting point of 145 °C.
In the case of `Oc1ccc(-c2cc3cc(Cl)ccc3o2)cc1`, the melting point is reported as 216 to 218 °C.
Work on `O=C(O)c1ccc(NCc2cccc(Cl)c2)cn1` yielded a melting point of 170 to 174 °C.
With `COc1ccc(-c2c(Cl)c(CN3C(=O)CCC3=O)nc3sc4c(c23)CC(C)(C)C(=O)C4)cc1` the melting point was 222 to 224 °C.
Compound `Cc1nc(N2CCN(Cc3ccccc3)S2(=O)=O)sc1C(=O)NCc1ccccc1` has a melting point of 135 to 137 °C.
With `CS(=O)c1cccc(NC(=O)NCC(=O)N(CC(=O)N2CCCc3ccccc32)c2ccccc2)c1` (racemic) the melting point was 140 °C.
With `CCOC(=O)CC(=O)c1cc(F)c(F)c(Cl)c1Cl` the melting point was 52 to 53 °C.
Work on `S=C(Cc1cccs1)N1CCCCC1` yielded a melting point of 51.5 to 52 °C.
In the case of `CCCOCCOc1ccc(-c2ccc3c(c2)C=C(C(=O)O)CCN3CCCOC)cc1`, the melting point is reported as 114 to 115 °C.
Compound `CCCCOC(=O)C(C)NC(=O)c1cc([N+](=O)[O-])cc([N+](=O)[O-])c1` (centres undefined) has a melting point of 93 to 96 °C.
Compound `COc1ccc(C(C#N)CNC(N)=O)cc1OC1CCCC1` (centres undefined) has a melting point of 55 to 61 °C.
Compound `CCn1ccnc1CC1COc2ccccc2O1` (centres undefined) has a melting point of 77 to 78 °C.
Work on `CCCCc1c(C(=O)OCC)cc(O)c2c(OC)cccc12` yielded a melting point of 80 to 82 °C.
`CNc1cc(NC)cc(C(O)CS(C)(=O)=O)c1` (centres undefined) showed a melting point of 106 °C.
Compound `CCn1c(=O)sc2cc([N+](=O)[O-])ccc21` has a melting point of 200 to 203 °C.
With `CSc1nc(-c2ccccc2)n(-c2ccc(C)cc2)c(=O)c1C#N` the melting point was 258 to 260 °C.
`CC(C)NCC(O)COc1ccc(-c2cc3ncccc3c(=O)n2C)cc1` (centres undefined) gave a melting point of 135 to 139 °C.
In the case of `COc1cc2sc(C#N)cc2c(Cl)c1OC`, the melting point is reported as 159 to 160 °C.
Work on `CCCC1=CC(C)(C)Oc2c(OCC)cc(Cc3cnc(N)nc3N)cc21` yielded a melting point of 208 to 209 °C.
Compound `CCCOc1c(OC)cc(Cl)c2c1CN1CCc3cc(OC)c(OCc4ccccc4)cc3C1C2` (centres undefined) has a melting point of 118 to 120 °C.
For `O=C(Nc1ccc(NC(=O)OCCCl)nc1)OCCCl`, the melting point was 198 °C.
`Cc1ccc(S(=O)(=O)OC2CCc3[nH]c4ccccc4c3C2)cc1` (centres undefined) gave a melting point of 148 to 151 °C.
With `CCN(CC)CCN1C(=O)C(O)C(c2ccc(OC)cc2)Sc2c1ccc1ccccc21` (centres undefined) the melting point was 124 to 125 °C.
Work on `Cc1cc(-c2nnn(C)n2)cc(C)c1OCCCCC1Cc2cccnc2N1C` (centres undefined) yielded a melting point of 54 to 57 °C.
With `O=C1OC(c2ccc(Cl)cc2)c2ccccc21` (centres undefined) the melting point was 124 °C.
In the case of `Cc1ccc(S(=O)(=O)OC[C@H]2CC[C@H](c3ccccc3)CC2)cc1`, the melting point is reported as 108 to 109 °C.
`CCOc1nn(-c2ccc(C(F)(F)F)cn2)cc1CCCOc1ccc(CCC(=O)O)c(OCc2ccccc2)c1` gave a melting point of 128 to 130 °C.
In the case of `CCCOC(=O)c1ccc(OC(=O)c2ccccc2C(=O)Oc2ccc(C(=O)OCCC)cc2)cc1`, the melting point is reported as 87 to 89 °C.
Compound `Oc1ncnc2[nH]c(-c3ccc4ccccc4c3)cc12` has a melting point of over 300 °C.
In the case of `CCCNC(=O)CCCc1ccc2c(c1)c(Cc1ccc(C(=O)O)cc1OC)cn2CCC`, the melting point is reported as 143 to 144 °C.
In the case of `CCCc1c(COc2ccc(Cc3nnn(Cc4ccc(-c5nnn[nH]5)cc4)n3)cc2)ccc(C(C)=O)c1O`, the melting point is reported as 86 to 88 °C.
In the case of `Cn1c(COc2ccc(CC3SC(=O)N(C(c4ccccc4)(c4ccccc4)c4ccccc4)C3=O)cc2)nc2cc(Br)cnc21` (centres undefined), the melting point is reported as 97 to 100 °C.
`CON(C)C(=O)Nc1ccc(OCCc2cccc(C)n2)cc1` showed a melting point of 96 to 97 °C.
With `Nc1cccc2c1C(=O)c1c(N)cccc1C2=O` the melting point was 272 to 273 °C.
With `CNC(=O)CCC1CCN(Cc2cnc3cc(NC(=O)c4ccc(-c5ccc(F)cc5)cc4)c(C)cc3c2)CC1` the melting point was 207 to 211 °C.
For `FC(F)(F)C(c1cc(-c2ccccc2)c(-c2ccccc2)[nH]1)C(F)(F)F`, the melting point was 112 to 114 °C.
Work on `COc1cc(-c2cnc3[nH]cc(C(=O)C(C)(CO)CO)c3n2)cc(OC)c1OC` yielded a melting point of 222 to 223 °C.
With `COC(=O)c1ccc(C(=O)NCc2cc(OC)cc(OC)c2)cc1Cl` the melting point was 101 to 103 °C.
`Cn1cc(-c2cc3cccnc3[nH]2)c2cc(CCC(=O)O)ccc21` gave a melting point of 268 to 270 °C.
With `CCN(CC)CC1CN(Cc2cc(OC)c(OC)c(OC)c2)CCN1C(=O)C1=Cc2cc(OC)c(OC)cc2CCC1` (centres undefined) the melting point was 157 to 160 °C.
Work on `COc1ccc(Oc2c(N)cc(C(=O)O)cc2SCc2ccccc2)cc1` yielded a melting point of 158 to 161 °C.
Compound `Cc1nc2cnccc2n1-c1ccc(C2=Nc3cc(Cl)c(Cl)cc3N3CCN=C3C2)cc1` has a melting point of 159 to 162 °C.
Work on `O=C(O)c1ccc(C(=O)Nc2ccc(C(=O)N3CCCc4ccccc43)cc2)cc1` yielded a melting point of over 300 °C.
In the case of `Cn1c2c(n(C)c1=O)CC(=NNC(=N)N)C=C2`, the melting point is reported as 238 °C.
Work on `CS(=O)(=O)c1ccc(N2CCC3(CC2)OCCO3)cc1` yielded a melting point of 192 to 194 °C.
Work on `Nc1cc(=O)n(Cc2cccc(F)c2)[nH]1` yielded a melting point of 129 °C.
With `CC(=O)n1c(C(F)(F)F)nc(-c2ccc(S(C)(=O)=O)cc2)c1-c1cc(C)cc(Cl)c1` the melting point was 257 °C.
`N#Cc1ccc(N(Cc2ccc(O)c(Br)c2)n2cnnc2)cc1-c1cc2ccccc2o1` gave a melting point of 147 to 148 °C.
With `CC(C)COC(=O)N=C(N=C1NC(=O)C(=O)N1c1ccc(Cl)c(Cl)c1)NC(C)C` the melting point was 260 °C.
`COCc1ccc(C(=O)N[C@H](Cc2ccc(C(F)(F)F)cc2)[C@@H](O)c2ccc(F)cc2)c2ccccc12` (racemic) gave a melting point of 170 to 171 °C.
For `CC(C)(C)c1ccc(-c2ccc3c(c2)C=C(C(=O)O)CCO3)cc1`, the melting point was 259 to 261 °C.
For `C[C@@H](CNC(=O)OC(C)(C)C)c1ccc(O)c(O)c1`, the melting point was 116 to 118 °C.
Work on `CCCc1nc2cnc3ccccc3c2n1CCCCNS(C)(=O)=O` yielded a melting point of 133 to 135 °C.
For `COc1ccc(Br)c(-c2nc(=S)n(Cc3ccccc3)[nH]2)c1`, the melting point was 154 to 155 °C.
In the case of `Cc1c(C)n(CC2CCCCC2)c2c(OCc3ccc(F)cc3)nncc12`, the melting point is reported as 108 to 109 °C.
Compound `CC(C)(C)OC(=O)Nc1ccc(-c2cccc(F)c2F)cc1[N+](=O)[O-]` has a melting point of 93 °C.
In the case of `O=c1c(-c2ccccc2O)coc2cc(O)ccc12`, the melting point is reported as 196 to 198 °C.
Work on `CSc1c(O)ccc2[nH]ncc12` yielded a melting point of 126 to 128 °C.
In the case of `COC(=O)c1cccc(-c2cc(-c3ccccc3)on2)c1`, the melting point is reported as 99 to 100 °C.
`O=C(O)c1ccc2ccc(S(=O)(=O)N(Cc3ccccc3)Cc3ccccc3)cc2c1` showed a melting point of 189 to 190 °C.
Work on `CCCCN(CCCC)c1ccc(C=CC2=CC(=CC=CC3=C(C#N)C(=C(C#N)C#N)OC3(C)C)CC(C)(C)C2)c(OC)c1` yielded a melting point of 228 to 230 °C.
